The source made the active and inactive calls.

This is an account of results in ChEMBL document CHEMBL1201862, “PubChem BioAssay data set” (2004).

One experiment relates to Vero. The experiment can be described thus: Vero cell cytotoxicity, cytotoxicity control for flavivirus capping enzyme inhibitors (AID 588742). The following applies: Chlorocebus sabaeus. It counts as functional.
The next experiment can be described thus: cells. It counts as functional.
The nature of experiment [1]: THP-1 cell cytotoxicity, dose response, cytotoxicity control for non-replicating M. tuberculosis project (AID 489025). It counts as functional.
Experiment [2] in a line: inhibitors of intracellular T. cruzi replication, confirmation, NIH3T3 host cells, beta-gal luminescence (AID 2044).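 Further: intracellular parasites grown in NIH/3T3 mouse fibroblasts as host cells; luminescent beta-galactosidase reporter signal from transgenic T. cruzi replicating inside host cells; inhibitors lower the luminescence signal.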 It counts as functional, cell-based.
For experiment [3], the system named is BJ. The experiment can be described thus: cells. It counts as functional, cell-based. To be noted: Homo sapiens.
The test system of experiment [4] is BJ. The experiment can be described thus: cytotoxicity toward BJ-TERT-LT-ST fibroblasts, dose response, cell-based, RAS-independent, luminescence (AID 1935).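 Further: BJ fibroblasts immortalized with TERT plus LT and ST oncogenes.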 It counts as functional. The following applies: Homo sapiens.
Experiment [5] in a line: cytotoxicity toward DRD oncogenic fibroblasts, dose response, cell-based, non-viral oncogenic, luminescence (AID 1934). It counts as functional. The following applies: Homo sapiens.
Experiment [6] deals with T1, Sentrin-specific protease 6 (Homo sapiens, UniProt Q9GZR1).
T1 sequence (Q9GZR1 whole entry): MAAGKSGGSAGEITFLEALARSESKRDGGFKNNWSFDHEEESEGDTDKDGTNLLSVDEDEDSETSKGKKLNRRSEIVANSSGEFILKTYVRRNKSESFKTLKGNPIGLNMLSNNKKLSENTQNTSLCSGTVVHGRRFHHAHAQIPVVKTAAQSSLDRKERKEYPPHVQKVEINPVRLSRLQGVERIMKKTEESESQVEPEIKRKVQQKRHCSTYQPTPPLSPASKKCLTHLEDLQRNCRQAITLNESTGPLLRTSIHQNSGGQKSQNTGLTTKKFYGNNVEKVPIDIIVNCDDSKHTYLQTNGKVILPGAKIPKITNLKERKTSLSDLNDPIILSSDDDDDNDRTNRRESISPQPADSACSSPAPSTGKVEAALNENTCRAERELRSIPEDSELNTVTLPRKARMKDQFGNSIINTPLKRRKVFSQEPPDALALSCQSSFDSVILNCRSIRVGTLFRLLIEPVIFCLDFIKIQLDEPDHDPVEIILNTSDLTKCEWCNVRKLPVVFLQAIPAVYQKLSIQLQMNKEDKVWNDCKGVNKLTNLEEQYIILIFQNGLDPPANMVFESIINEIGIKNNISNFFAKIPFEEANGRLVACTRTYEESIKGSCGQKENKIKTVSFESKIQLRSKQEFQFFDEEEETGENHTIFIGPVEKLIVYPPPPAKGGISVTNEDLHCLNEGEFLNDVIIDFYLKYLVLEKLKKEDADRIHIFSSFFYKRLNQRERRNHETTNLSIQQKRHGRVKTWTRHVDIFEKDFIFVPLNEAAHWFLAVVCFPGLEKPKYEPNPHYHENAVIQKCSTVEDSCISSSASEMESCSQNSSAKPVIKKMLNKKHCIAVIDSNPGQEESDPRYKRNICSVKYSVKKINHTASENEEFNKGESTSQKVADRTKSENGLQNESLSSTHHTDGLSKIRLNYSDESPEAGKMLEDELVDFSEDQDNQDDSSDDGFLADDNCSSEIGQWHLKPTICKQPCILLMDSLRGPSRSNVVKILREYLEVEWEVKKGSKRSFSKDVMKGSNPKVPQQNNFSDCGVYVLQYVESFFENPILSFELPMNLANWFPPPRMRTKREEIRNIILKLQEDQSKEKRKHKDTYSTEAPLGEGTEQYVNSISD
Format: functional.

In experiment [7] the target is T2, Sentrin-specific protease 8 (Homo sapiens, UniProt Q96LD8).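 Further: luminescence read-out of SENP8 inhibition, dose-response confirmation following an ultra-high-throughput screen.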
T2 sequence (Q96LD8 whole entry): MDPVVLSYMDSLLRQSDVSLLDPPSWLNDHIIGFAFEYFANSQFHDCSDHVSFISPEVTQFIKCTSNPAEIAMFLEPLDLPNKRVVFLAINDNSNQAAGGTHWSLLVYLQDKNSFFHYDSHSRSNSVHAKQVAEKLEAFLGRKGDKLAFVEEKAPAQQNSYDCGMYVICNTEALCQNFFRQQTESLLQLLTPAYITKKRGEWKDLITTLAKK
It counts as functional.

For experiment [8], the target named is Induced myeloid leukemia cell differentiation protein Mcl-1 (Homo sapiens, UniProt Q07820). Format: functional.
Experiment [9] concerns the target 1-phosphatidylinositol 4,5-bisphosphate phosphodiesterase beta-3 (Homo sapiens, UniProt Q01970). The experiment in a line: Fluorescence-based biochemical high throughput dose response assay to identify inhibitors of phospholipase C isozymes (PLC-B3).
Another experiment concerns the target T3, Cysteine protease ATG4B (Homo sapiens, UniProt Q9Y4P1).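 Further: Fluorescence-based dose-response confirmation assay measuring inhibition of ATG4B activity.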
T3 sequence (Q9Y4P1 whole entry): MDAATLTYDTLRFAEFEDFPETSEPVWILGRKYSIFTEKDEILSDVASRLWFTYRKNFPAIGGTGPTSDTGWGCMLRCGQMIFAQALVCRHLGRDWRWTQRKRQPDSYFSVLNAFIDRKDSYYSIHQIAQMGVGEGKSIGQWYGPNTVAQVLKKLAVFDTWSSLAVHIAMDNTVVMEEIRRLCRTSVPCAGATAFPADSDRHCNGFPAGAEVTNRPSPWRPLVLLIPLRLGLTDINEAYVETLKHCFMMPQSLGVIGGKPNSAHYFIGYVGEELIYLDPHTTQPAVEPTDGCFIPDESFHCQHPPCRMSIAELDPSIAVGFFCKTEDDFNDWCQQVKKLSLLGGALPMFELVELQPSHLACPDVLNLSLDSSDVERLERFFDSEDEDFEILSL
Format: functional.

The target in another experiment is T4, Caspase-3 (Homo sapiens, UniProt P42574).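 Further: Dose-response selectivity test against caspase-3 for candidate inhibitors of sentrin-specific proteases (SENPs).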
T4 sequence (P42574 whole entry): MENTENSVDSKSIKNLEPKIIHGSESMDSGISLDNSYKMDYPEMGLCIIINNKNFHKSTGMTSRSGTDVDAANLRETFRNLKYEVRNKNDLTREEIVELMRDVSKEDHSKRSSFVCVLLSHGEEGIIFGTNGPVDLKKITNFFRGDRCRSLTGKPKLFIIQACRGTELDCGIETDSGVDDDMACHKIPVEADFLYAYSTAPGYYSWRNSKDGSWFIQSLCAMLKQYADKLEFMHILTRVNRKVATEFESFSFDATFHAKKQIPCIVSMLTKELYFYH
It counts as functional.

In another experiment the target is Phospholipase A2 (Homo sapiens, UniProt P04054). Format: functional.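 Further: confirmatory dose-response counterscreen on phospholipase A2, testing hits that came from an ultra-high-throughput screen for ATG4B inhibitors.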
The next experiment addresses T5, Caspase-6 (Homo sapiens, UniProt P55212).
T5 sequence (P55212 whole entry): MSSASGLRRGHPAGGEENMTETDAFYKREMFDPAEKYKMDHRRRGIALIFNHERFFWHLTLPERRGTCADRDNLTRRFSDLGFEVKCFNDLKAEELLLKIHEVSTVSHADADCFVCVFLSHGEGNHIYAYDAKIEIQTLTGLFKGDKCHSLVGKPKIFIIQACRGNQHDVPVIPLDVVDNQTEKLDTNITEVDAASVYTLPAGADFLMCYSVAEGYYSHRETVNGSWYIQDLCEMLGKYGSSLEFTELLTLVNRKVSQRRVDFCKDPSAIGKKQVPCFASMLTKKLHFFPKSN
The experiment can be described thus: human caspase-6 inhibitors, dose response, biochemical, VEID-R110 fluorescence, cherry-pick (AID 720632).

Another experiment has as its target Caspase-8 (Homo sapiens, UniProt Q14790). The experiment in a line: caspase-8 inhibition counter-screen, dose response, selectivity assay for caspase-6 inhibitor project, biochemical, Z-IETD-R110 fluorescence, cherry-picked samples (AID 743294).

Chain of Induced myeloid leukemia cell differentiation protein Mcl-1 (Q07820 whole entry): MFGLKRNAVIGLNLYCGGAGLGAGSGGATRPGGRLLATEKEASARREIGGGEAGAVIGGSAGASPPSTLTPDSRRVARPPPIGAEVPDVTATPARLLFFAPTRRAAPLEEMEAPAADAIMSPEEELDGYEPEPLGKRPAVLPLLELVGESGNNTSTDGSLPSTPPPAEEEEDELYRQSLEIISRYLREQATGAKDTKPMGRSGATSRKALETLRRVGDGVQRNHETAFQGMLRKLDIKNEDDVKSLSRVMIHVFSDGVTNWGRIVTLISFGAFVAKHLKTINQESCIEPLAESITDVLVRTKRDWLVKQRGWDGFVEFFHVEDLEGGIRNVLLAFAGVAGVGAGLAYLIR
Chain of Caspase-8 (Q14790 217-374 limits assumed): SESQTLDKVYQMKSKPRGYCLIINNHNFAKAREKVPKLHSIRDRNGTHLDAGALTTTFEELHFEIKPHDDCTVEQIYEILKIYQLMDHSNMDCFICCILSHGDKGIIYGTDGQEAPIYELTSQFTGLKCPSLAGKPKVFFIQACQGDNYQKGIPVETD
Chain of Caspase-8 (Q14790 385-479 limits assumed): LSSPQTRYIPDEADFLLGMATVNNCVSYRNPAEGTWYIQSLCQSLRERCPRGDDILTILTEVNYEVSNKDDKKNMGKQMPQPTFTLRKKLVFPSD
Chain of Phospholipase A2 (P04054 whole entry): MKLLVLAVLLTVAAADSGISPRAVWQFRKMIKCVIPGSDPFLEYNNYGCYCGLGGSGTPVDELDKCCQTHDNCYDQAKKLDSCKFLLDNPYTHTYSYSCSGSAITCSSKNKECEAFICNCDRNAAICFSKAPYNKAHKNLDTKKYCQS
Chain of 1-phosphatidylinositol 4,5-bisphosphate phosphodiesterase beta-3 (Q01970 whole entry): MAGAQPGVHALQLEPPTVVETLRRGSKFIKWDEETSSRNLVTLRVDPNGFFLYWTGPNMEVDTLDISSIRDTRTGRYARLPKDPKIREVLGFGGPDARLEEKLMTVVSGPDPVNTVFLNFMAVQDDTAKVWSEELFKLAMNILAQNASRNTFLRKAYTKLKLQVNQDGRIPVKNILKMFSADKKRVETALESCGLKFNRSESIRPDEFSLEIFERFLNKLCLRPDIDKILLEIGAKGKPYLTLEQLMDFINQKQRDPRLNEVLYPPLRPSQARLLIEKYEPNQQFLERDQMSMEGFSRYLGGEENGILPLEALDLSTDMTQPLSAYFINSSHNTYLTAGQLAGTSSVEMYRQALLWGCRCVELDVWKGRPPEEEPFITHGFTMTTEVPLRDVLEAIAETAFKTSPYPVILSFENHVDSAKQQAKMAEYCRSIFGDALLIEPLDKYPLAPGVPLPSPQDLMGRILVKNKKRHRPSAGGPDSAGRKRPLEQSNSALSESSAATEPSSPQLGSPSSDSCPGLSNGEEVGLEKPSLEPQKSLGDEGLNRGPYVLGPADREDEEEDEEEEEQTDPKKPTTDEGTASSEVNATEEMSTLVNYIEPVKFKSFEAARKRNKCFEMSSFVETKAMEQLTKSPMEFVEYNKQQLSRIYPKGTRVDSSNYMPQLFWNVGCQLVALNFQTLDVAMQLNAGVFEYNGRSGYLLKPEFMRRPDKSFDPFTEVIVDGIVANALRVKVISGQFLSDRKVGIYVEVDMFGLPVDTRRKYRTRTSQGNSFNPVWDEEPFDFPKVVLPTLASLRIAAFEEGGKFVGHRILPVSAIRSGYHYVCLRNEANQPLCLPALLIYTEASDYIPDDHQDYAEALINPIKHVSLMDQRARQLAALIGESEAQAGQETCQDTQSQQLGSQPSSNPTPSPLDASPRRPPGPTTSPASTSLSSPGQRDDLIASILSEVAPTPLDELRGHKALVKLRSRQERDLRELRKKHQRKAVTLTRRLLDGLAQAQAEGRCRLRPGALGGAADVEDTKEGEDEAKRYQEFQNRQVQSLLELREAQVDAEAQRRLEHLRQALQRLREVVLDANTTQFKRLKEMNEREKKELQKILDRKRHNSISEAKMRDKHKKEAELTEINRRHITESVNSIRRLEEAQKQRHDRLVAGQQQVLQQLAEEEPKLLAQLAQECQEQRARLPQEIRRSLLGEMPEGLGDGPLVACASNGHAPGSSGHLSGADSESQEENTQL

For the compound `COC(CNC(=O)c1ccc2c3c(onc13)-c1ccccc1C2=O)OC`, the CC50 in the experiment on Vero is 20.4 µM (active); in experiment [1], 7.86 µM (active). For the same compound, in “cells”, the IC50 was 41.5 µM (active).

Regarding `COC(=O)[C@@H]1[C@@H](C(=O)OC)C2(c3ccccc3-c3ccccc32)N(c2ccc(Cl)cc2)N1C#N`, the EC50 in experiment [2] is 2.24 µM (active); in the experiment with BJ [3], 6.23 µM (active); in the experiment on BJ [4], 5.02 µM (active); in [5], 4.84 µM (active).

In the case of `O=C(O)c1ccc(NC2=C/C(=N/S(=O)(=O)c3ccccc3)c3ccccc3C2=O)cc1`, the CC50 in the experiment with Vero is 31.4 µM (active). For the same compound, the IC50 in [6] is 0.743 µM (active); in experiment [7], 1.38 µM (active); in [8] it was 1.65 µM (active); in experiment [9], > 122 µM (inactive); at Cysteine protease ATG4B, 10.1 µM (active); at Caspase-3 it was 4.5 µM (active). Moreover, the IC50 on Phospholipase A2 was 34.7 µM (inactive).

`COc1ccc(OC)c(Nc2cc3ccccc3c(O)n2)c1`: the IC50 in experiment [6] is < 1.55 µM (active); in experiment [7], 2.45 µM (active); on Caspase-3 it was 1.88 µM (active). The values for the AC50 on Caspase-6 and on Caspase-8 were 2.44 µM (active) and 6.14 µM (active), respectively.

On to `COc1cc(-c2ccc(Nc3ccccc3C(=O)O)c(OC)c2)ccc1Nc1ccccc1C(=O)O`, for which the concentration for half-maximal inhibition (IC50) in experiment [8] was 1.52 µM (active). For the same compound, the AC50 was 4.6 µM (active) on Caspase-6 and 48 µM (active) on Caspase-8.

`Nc1ccc2c(c1)C(=O)C(=O)c1ccccc1-2`: the figures for the EC50 (in the experiment on BJ [3]; in the experiment with BJ [4]; in [5]) were 4.11 µM (active), 3.12 µM (inconclusive) and 4.42 µM (active), respectively. Also, the IC50 in experiment [9] is > 122 µM (inactive); at Cysteine protease ATG4B, 1.56 µM (active); in the experiment “cells”, 7.1 µM (active); at Phospholipase A2 it was 48.8 µM (inactive). For the same compound, the cytotoxic concentration (CC50) in [1] is 2.74 µM (active).

As for `CCCC(=O)NC(c1ccccc1OC)c1ccc2cccnc2c1O` (configuration not stated), in experiment [2], the EC50 is 0.532 µM (active).
